{
  "source": "patent US20090149387A1",
  "about": "“Use of GLP-1 Peptides” (Novo Nordisk A/S, priority 1996, published 2009)",
  "key": {"Mice [1]": {"test_system": "Mice", "assay": "Appetite suppression in mice by subcutaneous synthetic GLP-1(7-36)amide: Complan consumption (Example 4)", "type": "in vivo", "conditions": "p<0.001", "method": "The test method was as described in Example 3 except that the mice were pre-exposed to formula milk (Complan®—a nutritionally complete infant milk substitute) for one day, then fasted one day. On the test day, consumption of Complan® was measured for each mouse during a 10 min period.\nMice were tested for appetite suppression by subcutaneous injection of GLP-1(7-36)amide dissolved in phosphate buffered saline."}, "Mice [2]": {"test_system": "Mice", "assay": "Appetite suppression in mice: sucrose consumption measured immediately after intraperitoneal injection (Example 2)", "type": "in vivo", "conditions": "85 micrograms (equivalent to 3.4 mg/kg) intraperitoneally, tested immediately after injection, 10 minute period, versus vehicle, p-value 0.002", "method": "Mice were deprived of their normal food for two days and given free access to a 20% sucrose solution on the first day of food deprivation. After the two day food deprivation period, the mice were injected intraperitoneally with 0.5 ml of a solution containing the test substance. Immediately after injection, individual mice were placed in one of eight 15 cm square test boxes with a stainless steel grid floor and a glass drinking tube which projected into the box. […] Consumption of the sucrose solution was measured over a 10 minute period by electronically recording the total amount of contact with the sucrose solution during the test session. The degree of appetite suppression produced by a given test substance was determined by statistical comparison of the mean duration of sucrose consumption by control (vehicle treated) mice with that of mice treated with a test substance. The degree of appetite suppression in a treated group of mice was expressed as percent difference between the test and control group's response duration means. […]"}, "Healthy human volunteers": {"test_system": "Healthy human volunteers", "assay": "Effect of iv infused GLP-1(7-36)amide on food intake, satiety, hunger, fullness and appetite in normal human subjects (double-blind crossover)", "type": "in vivo", "conditions": "iv infusion 50 pmol/(kg·h) 9.00-15.00, 20 healthy subjects, versus saline", "excerpt": "Healthy human volunteers (20 subjects) were in a double-blind crossover trial given an iv infusion of 50 pmol/(kg·h) of GLP-1(7-36)amide or saline on separate, but otherwise identical experimental days. The infusion was started at 9.00 and lasted until 15.00. At 9.45 the subjects received a fixed amount of breakfast and at 14.15 they had lunch of an identical composition but ad libitum. The subjects rated their feeling of satiety, hunger, fullness and appetite on a visual analogue scale every half hour. The results are given below:\nThe energy intake of each subjects was measured. The intakes were 3.9 MJ with GLP-1 and 4.3 MJ with Saline resulting in a p-value of 0.009."}, "rats": {"test_system": "rats", "conditions": "Tang-Christensen et al. 1996, route not stated; cited from earlier work"}},
  "note": "No end group written: not given here.",
  "data": [
    {"substance": "GLP-1(7-36)amide", "values": [
      {"measurement": "Suppression of feeding (Complan consumption)", "setting": "Mice [1]; 1 mg/kg subcutaneous, 30 min after injection", "value": 45, "unit": "%"},
      {"measurement": "Maximum effect, suppression of feeding (Complan consumption)", "setting": "Mice [1]; 20 mg/kg subcutaneous (highest dose tested)", "value": 60, "unit": "%"},
      {"measurement": "Suppression of sucrose consumption", "setting": "Mice [2]", "value": 60, "unit": "%"}
    ]},
    {"substance": "GLP-1: literature GLP-1 of b7; b6: proglucagon fragment 72-108 commonly referred to as GLP-1(1-37) or just GLP-1", "values": [
      {"measurement": "Satiety (visual analogue scale rating)", "setting": "Healthy human volunteers; p = 0.006", "value": "GLP-1 > Saline, p = 0.006"},
      {"measurement": "Appetite (visual analogue scale rating)", "setting": "Healthy human volunteers; p = 0.007", "value": "GLP-1 < Saline, p = 0.007"},
      {"measurement": "Hunger (visual analogue scale rating)", "setting": "Healthy human volunteers; p = 0.007", "value": "GLP-1 < Saline, p = 0.007"},
      {"measurement": "Fullness (visual analogue scale rating)", "setting": "Healthy human volunteers; p = 0.010", "value": "GLP-1 > Saline, p = 0.010"}
    ]},
    {"substance": "GLP-1(1-36)amide (HDEFERHAEGTFTSDVSSYLEGQAAKEFIAWLVKGR-NH2; UniProt P01275 92-127, looked up, fragment) [GLP-1 fragment 1-36, C-terminal amide; literature result]", "values": [
      {"measurement": "Effect on food intake", "setting": "rats", "value": "no effect on food intake"}
    ]}
  ]
}
